The target of one experiment is T1, Kv1.3 potassium channel (Homo sapiens, UniProt P22001).
T1 construct: expressed in transfected cells
As to the kind of experiment: Kv1.3 potassium channel blocker activity, automated whole-cell patch clamp (Patchliner). It counts as cell-based. The settings on record: CHO-K1 cells stably expressing Kv1.3; whole cell current inhibition; read-out: Kv1.3_IC50. Put shortly:
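Peak-current block was recorded on stable Kv1.3 CHO-K1 cells by automated patch clamp, stepping from a −90 mV holding potential to +40 mV for 100 ms at 0.1 Hz with 10 s breaks between trains. Online P/4 leak subtraction, 10 kHz sampling; compound exposure under 10 s per train.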

The target in the next experiment is hERG channel (Homo sapiens, UniProt Q12809). Nature of the experiment: hERG electrophysiology, automated whole-cell patch clamp (Patchliner). A general note: The hERG channel carries a current that helps repolarise heart muscle cells.
hERG channel, sequence (Q12809 whole entry): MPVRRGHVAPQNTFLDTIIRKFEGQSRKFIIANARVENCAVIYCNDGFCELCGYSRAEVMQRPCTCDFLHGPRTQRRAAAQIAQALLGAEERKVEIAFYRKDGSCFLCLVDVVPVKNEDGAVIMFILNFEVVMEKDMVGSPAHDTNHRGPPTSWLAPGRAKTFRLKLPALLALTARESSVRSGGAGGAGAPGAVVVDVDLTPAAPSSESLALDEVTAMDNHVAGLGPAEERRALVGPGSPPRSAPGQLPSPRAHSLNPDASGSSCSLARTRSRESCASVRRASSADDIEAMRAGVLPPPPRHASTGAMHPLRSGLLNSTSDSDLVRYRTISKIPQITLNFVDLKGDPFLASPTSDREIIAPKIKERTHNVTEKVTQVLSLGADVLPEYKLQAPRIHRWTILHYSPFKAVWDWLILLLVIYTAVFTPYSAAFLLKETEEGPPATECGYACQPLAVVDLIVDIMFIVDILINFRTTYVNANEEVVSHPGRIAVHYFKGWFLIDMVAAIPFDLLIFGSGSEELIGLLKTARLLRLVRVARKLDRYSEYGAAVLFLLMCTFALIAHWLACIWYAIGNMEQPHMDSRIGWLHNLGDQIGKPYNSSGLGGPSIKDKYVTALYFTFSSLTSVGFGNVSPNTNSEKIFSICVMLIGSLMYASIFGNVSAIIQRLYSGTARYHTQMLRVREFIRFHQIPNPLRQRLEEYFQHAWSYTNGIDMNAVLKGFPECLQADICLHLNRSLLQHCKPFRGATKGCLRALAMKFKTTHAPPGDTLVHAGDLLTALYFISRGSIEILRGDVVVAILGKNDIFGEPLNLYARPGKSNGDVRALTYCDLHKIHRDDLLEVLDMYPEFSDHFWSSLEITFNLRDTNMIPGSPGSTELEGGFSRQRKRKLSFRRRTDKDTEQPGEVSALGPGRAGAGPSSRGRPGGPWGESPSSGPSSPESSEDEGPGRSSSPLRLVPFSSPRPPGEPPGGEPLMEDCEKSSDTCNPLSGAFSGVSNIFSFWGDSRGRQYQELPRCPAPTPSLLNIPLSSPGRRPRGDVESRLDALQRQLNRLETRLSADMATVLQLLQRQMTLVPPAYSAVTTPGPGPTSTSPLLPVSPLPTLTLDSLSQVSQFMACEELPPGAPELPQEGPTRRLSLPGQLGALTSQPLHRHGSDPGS

These results are taken from patent US20230023559A1, “ARYLMETHYLENE HETEROCYCLIC COMPOUNDS AS KV1.3 POTASSIUM SHAKER CHANNEL BLOCKERS” (D. E. Shaw Research, LLC, priority 2019, published 2023).

T1 sequence (P22001 whole entry): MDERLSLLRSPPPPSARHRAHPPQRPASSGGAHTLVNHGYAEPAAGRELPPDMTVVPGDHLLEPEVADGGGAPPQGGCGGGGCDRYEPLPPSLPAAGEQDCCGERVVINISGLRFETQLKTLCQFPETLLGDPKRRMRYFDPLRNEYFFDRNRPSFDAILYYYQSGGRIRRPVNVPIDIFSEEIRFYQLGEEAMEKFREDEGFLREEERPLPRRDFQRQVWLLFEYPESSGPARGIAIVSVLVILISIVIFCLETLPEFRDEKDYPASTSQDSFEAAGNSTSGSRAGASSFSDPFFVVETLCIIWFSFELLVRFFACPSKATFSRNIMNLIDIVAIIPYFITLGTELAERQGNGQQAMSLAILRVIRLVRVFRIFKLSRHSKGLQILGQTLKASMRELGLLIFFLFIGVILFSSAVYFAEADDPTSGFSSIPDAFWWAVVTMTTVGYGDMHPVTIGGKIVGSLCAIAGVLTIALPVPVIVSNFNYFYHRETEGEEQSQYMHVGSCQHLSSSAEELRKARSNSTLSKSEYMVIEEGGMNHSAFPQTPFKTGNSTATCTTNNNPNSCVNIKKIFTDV

In general, IC50 refers to the concentration needed to halve the response being measured. As for `N[C@@H](c1cc(Cl)c(Cl)cc1O)C1CCN(C(=O)[C@@H]2CCC(=O)N2)CC1` [Compound 166, (5S)-5-[4-[(R)-amino(4,5-dichloro-2-hydroxyphenyl)methyl]piperidine-1-carbonyl] pyrrolidin-2-one trifluoroacetic acid], the concentration for half-maximal inhibition (IC50) on Kv1.3 potassium channel was below 10 µM; against hERG channel, above 30 µM.
As for `C[C@@H](O)[C@@H](N)C(=O)N1CCC([C@@H](N)c2cc(Cl)c(Cl)cc2O)CC1` [Compound 199, (2R,3R)-2-amino-1-[4-[(R)-amino(4,5-dichloro-2-hydroxyphenyl)methyl]piperidin-1-yl]-3-hydroxybutan-1-one trifluoroacetic acid], the IC50 on Kv1.3 potassium channel is below 0.5 µM; against hERG channel, above 30 µM.
`N[C@@H](c1cc(Cl)c(Cl)cc1O)C1CCN(C(=O)[C@H]2COCCN2)CC1` [Compound 194, (4-((R)-amino(4,5-dichloro-2-hydroxyphenyl)methyl)piperidin-1-yl)((R)-morpholin-3-yl)methanone]: the IC50 was below 0.5 µM at Kv1.3 potassium channel and above 30 µM at hERG channel.
On to `NC(c1cc(Cl)c(Cl)cc1O)C1CCNCC1` (centres unmarked) [Compound 1, 2-(amino(piperidin-4-yl)methyl)-4,5-dichlorophenol Trifluoroacetic Acid], for which the IC50 is below 10 µM on Kv1.3 potassium channel and above 30 µM at hERG channel.
As to `Cc1[nH]ncc1C(=O)N1CCC([C@@H](N)c2cc(Cl)c(Cl)cc2O)CC1` [Compound 153, 2-[(R)-amino[1-(3-methyl-1H-pyrazole-4-carbonyl)piperidin-4-yl]methyl]-4,5-dichlorophenol trifluoroacetic acid], the figures for the IC50 at Kv1.3 potassium channel and against hERG channel were below 0.5 µM and above 30 µM, respectively.
For `NC(=O)N1CCC([C@@H](N)c2cc(Cl)c(Cl)cc2O)CC1` (single isomer, unassigned) [Compound 82], the IC50 was below 10 µM on Kv1.3 potassium channel and above 30 µM on hERG channel.
On to `NC(c1cc(Cl)c(Cl)cc1O)C1CCN(C(=O)c2ccccc2)CC1` (centres unmarked) [Compound 68, 2-[amino(1-benzoylpiperidin-4-yl)methyl]-4,5-dichlorophenol Trifluoroacetic Acid], for which the IC50 is below 10 µM at Kv1.3 potassium channel and below 30 µM at hERG channel.
Turning to `N[C@@H](c1c(O)cc(Cl)c(Cl)c1Cl)C1CCNCC1` (single isomer, unassigned) [Compound 61, Trifluoroacetic Acid], the results for the IC50 at Kv1.3 potassium channel and against hERG channel were below 10 µM and above 30 µM, respectively.
The matching figures for `N[C@@H](c1cc2ccccc2cc1O)C1CCN(C(=O)[C@H](O)CO)CC1` [Compound 189, (2R)-1-[4-[(R)-amino(3-hydroxynaphthalen-2-yl)methyl]piperidin-1-yl]-2,3-dihydroxypropan-1-one Trifluoroacetic Acid]: below 0.5 µM and above 30 µM.
The matching figures for `Cc1cc(O)c([C@H](N)C2CCN(C(=O)c3c[nH]c(=O)c(CO)c3)CC2)cc1Cl` [Compound 207, (R)-5-(4-(amino (5-chloro-2-hydroxy-4-methylphenyl)methyl)piperidine-1-carbonyl)-3-(hydroxymethyl) pyridin-2(1H)-one]: below 0.5 µM and above 30 µM.
Turning to `N[C@@H](c1cc(Cl)c(Br)cc1O)C1CCN(C(=O)[C@H](O)CO)CC1` [Compound 317, (2R)-1-[4-[(R)-amino(4-bromo-5-chloro-2-hydroxyphenyl)methyl]piperidin-1-yl]-2,3-dihydroxypropan-1-one Trifluoroacetic Acid], the IC50 at Kv1.3 potassium channel is below 0.5 µM; against hERG channel, above 30 µM.
Turning to `Nc1cccc(N2CCC([C@@H](N)c3cc(Cl)c(Cl)cc3O)CC2)n1` [Compound 146, (R)-2-(amino(1-(6-aminopyridin-2-yl)piperidin-4-yl)methyl)-4,5-dichlorophenol Trifluoroacetic Acid], the IC50 at Kv1.3 potassium channel is below 10 µM; at hERG channel, below 30 µM.
`N[C@@H](c1cc(Cl)c(Cl)cc1O)C1CCN(C(=O)C2(F)CNC2)CC1` [Compound 114, 2-[(R)-amino[1-(3-fluoroazetidine-3-carbonyl)piperidin-4-yl]methyl]-4,5-dichlorophenol]: the figures for the IC50 at Kv1.3 potassium channel and against hERG channel were below 0.5 µM and above 30 µM, respectively.
